# Patent US7368443B2, “2,6-disubstituted piperidines and piperazine compounds” (University of Kentucky Research Foundation, priority 1999, dated 2008)
# Read-outs that look alike come from different tables or passages of the source.
# Tests used:
# [1] = molecular target: T1, dopamine transporter (DAT) (Rattus norvegicus, UniProt P23977); assay: [3H]Dopamine uptake assay, striatal synaptosomes; assay type: biochemical
# T1 construct: Striata were homogenized in 20 ml of ice-cold sucrose solution; from tissue; host or cells: striatal synaptosomes
# VMAT2 [2] = molecular target: T2, VMAT2 (Rattus norvegicus, UniProt Q01827); assay: biochemical
# [3] = molecular target: T3, serotonin transporter (SERT) (Rattus norvegicus, UniProt P31652); assay: [3H]5-HT uptake assay, hippocampal synaptosomes; assay type: biochemical; settings: for IC50: Table 4, earlier studies
# T3 construct: Rat hippocampus was homogenized in 20 mL cold 0.32 M sucrose; from tissue; host or cells: rat hippocampal synaptosomes
# α6β2* nicotinic receptor = α6β2* nicotinic receptor (Rattus norvegicus, UniProt P12390+P43143); assay: Nicotine-evoked [3H]DA overflow from superfused striatal slices; assay type: cell-based
# α3β4* nicotinic receptor = α3β4* nicotinic receptor (Rattus norvegicus, UniProt P04757+P12392); assay: Nicotine-evoked [3H]NE overflow from superfused hippocampal slices; assay type: cell-based; settings: inhibition of 10 μM S(−)-nicotine
# α4β2* nicotinic receptor [4] = molecular target: T4, α4β2* nicotinic receptor (Rattus norvegicus, UniProt P09483+P12390); assay: High affinity [3H]nicotine binding assay; set-up: The pellet containing the striatal membranes was resuspended; from tissue; host or cells: rat striatal membranes
# [5] = system: methamphetamine-evoked endogenous DA release from striatal slices; assay: Methamphetamine-evoked endogenous DA overflow from superfused striatal slices; assay type: cell-based; settings: read-out: Inhibition of Methamphetamine Evoked DA Overflow IC50 (Mean)
# VMAT2 [6] = molecular target: T2, VMAT2; assay: [3H]Dihydrotetrabenazine ([3H]DTBZ) binding assay, synaptic vesicles; settings: inhibition of [3H]DTBZ binding Ki, text b58
# α7* nicotinic receptor = molecular target: T5, α7* nicotinic receptor (Rattus norvegicus, UniProt Q05941); assay: [3H]Methyllycaconitine ([3H]MLA) binding assay; settings: Table 1; rat whole brain membranes; read-out: [3H]MLA Binding (Ki) α7*
# T5 construct: Whole rat brain (minus cortex, striatum and cerebellum) was homogenized; from tissue; host or cells: rat whole brain membranes (minus cortex, striatum and cerebellum)
# α4β2* nicotinic receptor [7] = molecular target: T4, α4β2* nicotinic receptor; assay: Nicotine-evoked 86Rb+ efflux assay, thalamic synaptosomes; assay type: biochemical; set-up: from tissue; settings: read-out: Inhibition of Nicotine-Evoked 86Rb+ Efflux (IC50) α4β2*
# [8] = Table 1, read-out: [3H]DA Uptake (Ki)
# [9] = Table 1, read-out: [3H]5-HT Uptake (Ki) SERT
# [10] = Table 1, inhibition of 10 μM S(−)-nicotine, NI: no inhibition, read-out: Inhibition of Nicotine-Evoked [3H]DA Overflow (IC50) α6β2*
# [11] = inhibition of nicotine-evoked [3H]DA overflow IC50
# [12] = Table 1, rat striatal membranes, read-out: [3H]Nicotine Binding (Ki) α4β2*
# [13] = Table 4, earlier studies, read-out: [3H]Nicotine Binding (Ki) α4β2*
# [14] = Table 3, earlier study, read-out: Ki [3H]-Dopamine Uptake Assay
# [15] = Table 3, earlier study, read-out: Ki [3H]-Nicotine Binding Assay
# T3 sequence (P31652 whole entry): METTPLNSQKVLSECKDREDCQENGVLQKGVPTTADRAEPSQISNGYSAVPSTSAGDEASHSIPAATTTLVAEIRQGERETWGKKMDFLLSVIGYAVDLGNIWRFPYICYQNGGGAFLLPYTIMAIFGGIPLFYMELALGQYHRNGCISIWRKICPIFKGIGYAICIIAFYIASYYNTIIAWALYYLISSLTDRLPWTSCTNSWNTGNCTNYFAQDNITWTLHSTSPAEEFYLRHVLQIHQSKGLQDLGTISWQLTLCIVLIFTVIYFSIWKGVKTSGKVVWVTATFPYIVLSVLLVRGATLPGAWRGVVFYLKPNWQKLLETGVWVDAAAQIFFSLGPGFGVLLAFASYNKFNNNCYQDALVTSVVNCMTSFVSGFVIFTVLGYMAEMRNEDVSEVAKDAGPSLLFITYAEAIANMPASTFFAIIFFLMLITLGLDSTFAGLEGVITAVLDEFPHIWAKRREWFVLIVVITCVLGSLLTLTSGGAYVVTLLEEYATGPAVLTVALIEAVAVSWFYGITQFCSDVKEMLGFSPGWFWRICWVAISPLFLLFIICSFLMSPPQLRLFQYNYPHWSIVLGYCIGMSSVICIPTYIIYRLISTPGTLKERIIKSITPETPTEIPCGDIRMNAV
# Chain of α6β2* nicotinic receptor (P43143 31-493): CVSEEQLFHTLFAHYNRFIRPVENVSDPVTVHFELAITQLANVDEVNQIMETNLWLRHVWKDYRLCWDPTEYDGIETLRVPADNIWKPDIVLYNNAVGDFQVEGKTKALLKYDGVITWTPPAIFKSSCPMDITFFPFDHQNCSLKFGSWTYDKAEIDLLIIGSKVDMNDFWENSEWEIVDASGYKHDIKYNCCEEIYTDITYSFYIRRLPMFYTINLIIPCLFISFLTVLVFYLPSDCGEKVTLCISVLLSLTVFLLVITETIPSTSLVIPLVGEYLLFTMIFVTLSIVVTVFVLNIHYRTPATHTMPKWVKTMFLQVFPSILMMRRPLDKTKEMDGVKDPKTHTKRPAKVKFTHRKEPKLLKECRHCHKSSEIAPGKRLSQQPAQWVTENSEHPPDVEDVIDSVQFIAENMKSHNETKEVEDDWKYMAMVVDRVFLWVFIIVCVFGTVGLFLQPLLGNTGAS
# Chain of α6β2* nicotinic receptor (P12390 25-500): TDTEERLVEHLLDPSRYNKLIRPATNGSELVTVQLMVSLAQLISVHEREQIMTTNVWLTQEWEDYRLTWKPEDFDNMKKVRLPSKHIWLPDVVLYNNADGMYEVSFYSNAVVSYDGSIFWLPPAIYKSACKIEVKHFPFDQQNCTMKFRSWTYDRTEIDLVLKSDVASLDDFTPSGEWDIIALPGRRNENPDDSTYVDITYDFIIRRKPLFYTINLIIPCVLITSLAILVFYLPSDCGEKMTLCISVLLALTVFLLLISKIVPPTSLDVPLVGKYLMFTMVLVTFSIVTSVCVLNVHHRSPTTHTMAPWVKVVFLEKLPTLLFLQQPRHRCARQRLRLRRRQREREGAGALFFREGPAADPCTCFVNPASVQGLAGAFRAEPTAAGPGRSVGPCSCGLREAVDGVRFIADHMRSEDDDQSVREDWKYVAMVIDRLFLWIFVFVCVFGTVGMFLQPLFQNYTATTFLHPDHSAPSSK
# T1 sequence (P23977 whole entry): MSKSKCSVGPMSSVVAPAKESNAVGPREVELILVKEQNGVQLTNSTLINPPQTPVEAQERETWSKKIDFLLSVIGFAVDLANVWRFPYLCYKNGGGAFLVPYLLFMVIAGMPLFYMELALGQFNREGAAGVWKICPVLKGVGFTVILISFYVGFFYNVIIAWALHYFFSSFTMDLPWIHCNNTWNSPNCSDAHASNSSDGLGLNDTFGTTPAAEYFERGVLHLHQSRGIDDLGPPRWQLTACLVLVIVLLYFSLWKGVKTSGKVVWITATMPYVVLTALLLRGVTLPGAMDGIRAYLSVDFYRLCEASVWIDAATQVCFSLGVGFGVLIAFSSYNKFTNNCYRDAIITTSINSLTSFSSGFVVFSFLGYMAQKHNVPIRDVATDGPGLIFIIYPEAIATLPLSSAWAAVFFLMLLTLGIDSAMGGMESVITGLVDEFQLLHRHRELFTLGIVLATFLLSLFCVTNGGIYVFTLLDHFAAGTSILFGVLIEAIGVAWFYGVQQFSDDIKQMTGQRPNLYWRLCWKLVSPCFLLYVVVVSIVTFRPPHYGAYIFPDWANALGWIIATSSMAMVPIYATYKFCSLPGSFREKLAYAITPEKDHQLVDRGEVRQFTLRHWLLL
# T2 sequence (Q01827 whole entry): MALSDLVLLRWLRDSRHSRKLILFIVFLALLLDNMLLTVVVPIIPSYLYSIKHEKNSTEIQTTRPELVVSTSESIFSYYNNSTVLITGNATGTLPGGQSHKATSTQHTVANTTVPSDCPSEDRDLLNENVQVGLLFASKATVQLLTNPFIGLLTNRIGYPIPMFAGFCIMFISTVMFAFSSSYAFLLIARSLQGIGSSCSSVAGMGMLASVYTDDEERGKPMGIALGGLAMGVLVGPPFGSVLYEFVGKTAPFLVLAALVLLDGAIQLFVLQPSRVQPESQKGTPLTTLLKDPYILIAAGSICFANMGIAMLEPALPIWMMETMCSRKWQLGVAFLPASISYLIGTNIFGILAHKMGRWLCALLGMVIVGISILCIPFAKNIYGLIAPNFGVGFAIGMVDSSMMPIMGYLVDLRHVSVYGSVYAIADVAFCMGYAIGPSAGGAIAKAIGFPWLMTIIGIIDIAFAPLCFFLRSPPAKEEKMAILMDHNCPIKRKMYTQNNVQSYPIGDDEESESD
# T5 sequence (Q05941 23-502): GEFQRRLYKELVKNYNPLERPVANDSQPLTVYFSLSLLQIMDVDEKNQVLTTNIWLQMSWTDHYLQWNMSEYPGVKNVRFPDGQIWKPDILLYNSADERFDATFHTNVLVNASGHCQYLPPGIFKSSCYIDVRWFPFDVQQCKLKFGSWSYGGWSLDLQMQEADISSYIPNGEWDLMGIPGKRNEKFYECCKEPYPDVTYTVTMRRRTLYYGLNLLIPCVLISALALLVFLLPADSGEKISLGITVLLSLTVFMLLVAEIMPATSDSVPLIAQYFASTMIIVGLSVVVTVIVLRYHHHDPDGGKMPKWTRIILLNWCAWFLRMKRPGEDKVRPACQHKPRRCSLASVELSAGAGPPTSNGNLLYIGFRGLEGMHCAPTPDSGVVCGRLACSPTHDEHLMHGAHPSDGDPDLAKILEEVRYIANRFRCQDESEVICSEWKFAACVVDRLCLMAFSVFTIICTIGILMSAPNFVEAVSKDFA
# Chain of α3β4* nicotinic receptor (P04757 26-499): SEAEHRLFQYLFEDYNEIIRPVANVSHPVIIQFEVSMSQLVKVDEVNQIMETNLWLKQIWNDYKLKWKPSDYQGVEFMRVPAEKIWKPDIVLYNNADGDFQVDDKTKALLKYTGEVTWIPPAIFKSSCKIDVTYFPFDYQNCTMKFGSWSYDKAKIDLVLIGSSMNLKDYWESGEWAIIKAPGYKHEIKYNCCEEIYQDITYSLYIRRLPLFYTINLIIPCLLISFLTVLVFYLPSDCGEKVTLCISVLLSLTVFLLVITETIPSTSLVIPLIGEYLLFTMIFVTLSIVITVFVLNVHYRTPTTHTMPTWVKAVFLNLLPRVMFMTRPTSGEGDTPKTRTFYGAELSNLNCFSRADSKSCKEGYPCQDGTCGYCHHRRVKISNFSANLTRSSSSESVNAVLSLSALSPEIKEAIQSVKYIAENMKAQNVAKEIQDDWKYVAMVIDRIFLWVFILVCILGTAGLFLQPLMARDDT
# Chain of α3β4* nicotinic receptor (P12392 21-495): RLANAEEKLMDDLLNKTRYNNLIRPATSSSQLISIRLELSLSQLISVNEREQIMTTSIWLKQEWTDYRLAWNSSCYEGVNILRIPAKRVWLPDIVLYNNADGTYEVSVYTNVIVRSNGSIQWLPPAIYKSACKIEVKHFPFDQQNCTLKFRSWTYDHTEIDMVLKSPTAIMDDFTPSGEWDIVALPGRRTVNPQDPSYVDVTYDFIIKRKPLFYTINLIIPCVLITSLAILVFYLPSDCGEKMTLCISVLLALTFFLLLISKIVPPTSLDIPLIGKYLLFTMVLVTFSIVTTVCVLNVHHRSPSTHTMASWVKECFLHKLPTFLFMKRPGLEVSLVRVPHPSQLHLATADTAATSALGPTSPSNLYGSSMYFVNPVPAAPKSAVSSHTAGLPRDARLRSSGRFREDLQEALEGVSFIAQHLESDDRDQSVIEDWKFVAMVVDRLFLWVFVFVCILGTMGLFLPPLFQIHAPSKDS
# T4 sequence (P09483 31-630): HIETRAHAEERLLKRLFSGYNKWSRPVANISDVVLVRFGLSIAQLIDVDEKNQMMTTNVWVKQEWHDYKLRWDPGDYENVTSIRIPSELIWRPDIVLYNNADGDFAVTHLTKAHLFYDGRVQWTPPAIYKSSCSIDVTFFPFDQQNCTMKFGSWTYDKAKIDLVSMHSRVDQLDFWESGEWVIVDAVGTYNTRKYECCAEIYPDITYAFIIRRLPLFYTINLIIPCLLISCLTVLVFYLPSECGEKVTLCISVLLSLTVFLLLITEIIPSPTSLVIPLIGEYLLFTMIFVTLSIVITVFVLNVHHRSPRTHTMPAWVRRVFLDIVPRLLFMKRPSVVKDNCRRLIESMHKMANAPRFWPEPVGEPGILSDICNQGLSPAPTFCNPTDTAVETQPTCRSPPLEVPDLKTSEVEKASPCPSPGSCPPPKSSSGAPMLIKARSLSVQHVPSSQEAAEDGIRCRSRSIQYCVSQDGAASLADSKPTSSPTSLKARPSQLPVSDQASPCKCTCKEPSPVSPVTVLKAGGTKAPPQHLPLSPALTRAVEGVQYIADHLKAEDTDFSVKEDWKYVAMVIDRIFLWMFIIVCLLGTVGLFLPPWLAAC
# T4 sequence (P12390 25-500): as the sequence (P12390 25-500) above
Compound,"Ki [1, 8]",IC50 (VMAT2 [2]),"Ki [3, 9]",IC50 [3],selectivity as inhibitor of α6β2* (and α3β4*) subtypes of nAChR compared to inhibition of SERT function (α6β2* nicotinic receptor),selectivity for the α6β2* subtype of nAChR relative to interaction with the MTBZ site on VMAT2 (α6β2* nicotinic receptor),selectivity for α6β2* (and α3β4*) subtypes of nAChR compared to α4β2* or α7* subtypes (α6β2* nicotinic receptor),IC50 (α6β2* nicotinic receptor; [10]),IC50 (α6β2* nicotinic receptor; [11]),IC50 (α3β4* nicotinic receptor; Table 1),Ki (α4β2* nicotinic receptor [4]; [12]),Ki (α4β2* nicotinic receptor [4]; [13]),IC50 ([5]; Rattus norvegicus),Ki (VMAT2 [6]),Ki (α7* nicotinic receptor),"Ki [1, 14]",IC50 (α4β2* nicotinic receptor [7]),Ki (α4β2* nicotinic receptor [4]; [15]),further results
"CN1[C@H](/C=C/c2ccccc2)CCC[C@H]1/C=C/c1ccccc1 [Compound 15, N-methyl-2S,6S-trans-di-trans-styrylpiperidine]",0.26 µM,5.15 µM,0.38 µM,1.19 µM,2.2 fold,9.5 fold,> 24 fold,1 µM,0.1 to 1 µM,0.03 µM,11.9 µM,13 µM,> 100 µM,–,–,–,–,–,"more potent inhibiting the function of SERT than Compound 14 ([3]; earlier data): 19 fold; Ki ([3]; read-out: inhibition of serotonin uptake Ki): 0.01 to 0.38 µM; IC50 (α6β2* nicotinic receptor; Table 4, earlier studies, inhibition of 10 μM S(−)-nicotine, read-out: Inhibition of Nicotine-Evoked [3H]DA Overflow (IC50) α6β2*): 0.54 µM; loss of affinity for the nicotinic receptor compared to lobeline (α4β2* nicotinic receptor [4]; Table 1 data, [3H]nicotine binding): 1000 fold"
"COc1ccccc1CC[C@H]1CCC[C@@H](CCc2ccccc2OC)N1C [Compound 37, N-methyl-2,6-cis-di-(o-methoxyphenethyl)piperidine]",–,–,–,–,–,–,–,–,–,–,> 100 µM,–,–,0.43 to 0.68 µM,26 µM,–,–,–,–
"CN1[C@@H](CC(=O)c2ccccc2)CCC[C@H]1/C=C/c1ccccc1 [Compound 5, N-methyl-2R-phenacyl-6S-trans-styrylpiperidine]",1.74 µM,–,1.86 µM,–,–,–,–,–,–,–,0.44 µM,–,–,–,34.2 µM,3 µM,0.3 µM,0.13 µM,"inhibition of DAT, potency compared with lobeline ([1]; Table 1 data): 17 fold; inhibition of DAT, potency compared with lobeline ([1]; earlier study (Table 3)): 10 fold"
"Cc1ccc(S(=O)(=O)O[C@@H](C[C@H]2CCC[C@@H](CC(=O)c3ccccc3)N2C)c2ccccc2)cc1 [Compound 2, 2S,6R,8S-2-[6-(β-Para-toluenesulfonyloxyphenethyl)-1-methyl-2-piperidyl]-acetophenone]",29.1 µM,–,1.67 µM,–,–,–,–,1 µM,–,–,0.011 µM,–,–,–,10.8 µM,39 µM,0.002 µM,0.0041 µM,–
"CN1[C@H](/C=C/c2ccccc2)CCC[C@@H]1/C=C/c1ccccc1 [Compound 14, N-methyl-2,6-cis-di-trans-styrylpiperidine]",0.58 µM,1.29 µM,8.94 µM,23.2 µM,770 fold,43 fold,> 370 fold,–,0.0003 µM,0.01 µM,> 100 µM,11 µM,0.43 to 1.25 µM,–,–,0.8 µM,> 10 µM,> 100 µM,"melting point: 149 to 150 °C; IC50 (α6β2* nicotinic receptor; Inhibition of Nicotine-Evoked [3H]DA Overflow (IC50) α6β2*): 0.03 µM; more potent at inhibiting nicotine-evoked [3H]DA and [3H]NE release compared to Compound 15 (α6β2* nicotinic receptor; rat striatal and hippocampal slices, earlier data): 18 fold; IC50 (α3β4* nicotinic receptor; Table 4, earlier studies): 0.021 µM; IC50 ([5]; superfused rat striatal slices): 0.7 µM"
"COc1cccc(CC[C@H]2CCC[C@@H](CCc3cccc(OC)c3)N2C)c1 [Compound 39, N-methyl-2,6-cis-di-(m-methoxyphenethyl)piperidine]",–,–,–,–,–,–,–,–,–,–,> 100 µM,–,–,0.43 to 0.68 µM,25.5 µM,–,–,–,–
